Measurements: patent US11400094B2, “2H-pyrazolo[4,3-d]pyrimidine compounds as toll-like receptor 7 (TLR7) agonists and methods and uses therefor” (BRISTOL-MYERS SQUIBB COMPANY, priority 2018, dated 2022)

Molecular target: T1, human TLR7 (Homo sapiens, UniProt Q9NYK1)
T1 construct: host or cells: HEK-Blue TLR7 cells (engineered human embryonic kidney cells)
T1 sequence (Q9NYK1 27-1049): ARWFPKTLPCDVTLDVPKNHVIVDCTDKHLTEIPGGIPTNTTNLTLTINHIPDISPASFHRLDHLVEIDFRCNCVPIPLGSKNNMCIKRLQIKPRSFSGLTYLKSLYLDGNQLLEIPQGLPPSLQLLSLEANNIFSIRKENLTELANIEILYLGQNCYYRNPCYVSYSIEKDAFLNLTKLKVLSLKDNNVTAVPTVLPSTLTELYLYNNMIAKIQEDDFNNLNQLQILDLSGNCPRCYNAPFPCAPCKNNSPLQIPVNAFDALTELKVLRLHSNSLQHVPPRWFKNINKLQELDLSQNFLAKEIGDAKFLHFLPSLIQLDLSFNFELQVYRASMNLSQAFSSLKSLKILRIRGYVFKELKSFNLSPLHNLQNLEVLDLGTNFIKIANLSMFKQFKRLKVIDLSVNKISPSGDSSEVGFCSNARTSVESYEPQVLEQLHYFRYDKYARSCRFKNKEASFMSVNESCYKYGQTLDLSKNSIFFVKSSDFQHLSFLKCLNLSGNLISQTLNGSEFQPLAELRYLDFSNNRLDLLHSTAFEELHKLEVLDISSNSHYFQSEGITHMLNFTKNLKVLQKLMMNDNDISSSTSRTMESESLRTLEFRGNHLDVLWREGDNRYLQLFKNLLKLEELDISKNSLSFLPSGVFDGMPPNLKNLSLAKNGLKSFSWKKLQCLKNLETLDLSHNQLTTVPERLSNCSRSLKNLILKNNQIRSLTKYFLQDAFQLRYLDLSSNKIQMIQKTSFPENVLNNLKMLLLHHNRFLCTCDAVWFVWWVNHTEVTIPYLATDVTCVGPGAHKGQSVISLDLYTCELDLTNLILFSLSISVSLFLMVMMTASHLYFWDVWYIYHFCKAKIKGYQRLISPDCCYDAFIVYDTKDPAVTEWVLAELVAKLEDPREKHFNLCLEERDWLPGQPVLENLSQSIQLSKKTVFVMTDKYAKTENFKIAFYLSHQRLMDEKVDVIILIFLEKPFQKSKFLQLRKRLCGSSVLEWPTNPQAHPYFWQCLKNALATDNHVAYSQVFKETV
Assay: HEK-Blue TLR7 reporter assay (human TLR7 agonist activity, SEAP reporter)
Assay type: cell-based
Conditions: HEK-Blue TLR7 cells, 18 h treatment, SEAP read-out
Procedure: This procedure describes a method for assaying human TLR7 (hTLR7) agonist activity of the compounds disclosed in this specification.
HEK-Blue™ TLR7 cells were added to each well of a 384-well tissue-culture plate (15,000 cells per well) and incubated 16-18 h at 37° C., 5% CO2. […] After 18 h treatment ten microliters of freshly-prepared Quanti-Blue™ reagent (Invivogen) was added to each well, incubated for 30 min (37° C., 5% CO2) and SEAP levels measured using an Envision plate reader (OD=620 nm).

Structure (SMILES) | EC50 (Table A, formula IIa compounds) [nM] | EC50 (Table B, formula IIb compounds) [nM]
CCC[C@@H](CCO)Nc1nc(N)nc2cn(Cc3ccc(CO)cc3OC)nc12 [IIa-35] | 2100 | 
CCCCNc1nc(N)nc2cn(Cc3ccc(CN4CCOCC4)cc3OC)nc12 [IIa-30] | 580 | 
CCCCNc1nc(N)nc2cn(Cc3ccc(Oc4ccc(CNCCO)cc4)cc3OC)nc12 [IIb-02] |  | 1600
CCCCNc1nc(N)nc2cn(Cc3ccc(CN4CC5CC4CN5)cc3OC)nc12 (stereo not shown) [IIa-27] | 710 | 
CCCCNc1nc(N)nc2cn(Cc3ccc(Oc4ccc(CO)cc4)nc3)nc12 [IIb-01] |  | 820
CCCCNc1nc(N)nc2cn(Cc3ccc(CNCCCN)cc3OC)nc12 [IIa-04] | 1600 | 
CCCCNCc1ccc(Cn2cc3nc(N)nc(NCCCC)c3n2)c(OC)c1 [IIa-33] | 810 | 
CCCCNc1nc(N)nc2cn(Cc3ccc(CN4CCCC4)cc3OC)nc12 [IIa-32] | 600 | 
CCCCNc1nc(N)nc2cn(Cc3ccc(CNc4ccc(CCO)cc4)cc3OC)nc12 [IIa-25] | 880 | 
CCCCNc1nc(N)nc2cn(Cc3ccc(CN4CCCNCC4)cc3OC)nc12 [IIa-29] | 760 | 
CCCCNc1nc(N)nc2cn(Cc3ccc(CNCCO)cc3OC)nc12 [IIa-03] | 1000 | 
CCCCNc1nc(N)nc2cn(Cc3ccc(Oc4ccc(CNCCO)cc4)nc3)nc12 [IIb-04] |  | 2100
CCCCNc1nc(N)nc2cn(Cc3ccc(CNC4CCC(O)CC4)cc3OC)nc12 (stereo not shown) [IIa-08] | 650 | 
CCCCNc1nc(N)nc2cn(Cc3ccc(CNCC4COC4)cc3OC)nc12 [IIa-07] | 610 | 

Next, values leading:

EC50 (Table A, formula IIa compounds) [nM] | EC50 (Table B, formula IIb compounds) [nM] | Structure (SMILES)
180 |  | CCCCNc1nc(N)nc2cn(Cc3ccc(CN4CCN(CCO)CC4)cc3OC)nc12 [IIa-17]
520 |  | CCCCNc1nc(N)nc2cn(Cc3ccc(CN4CCN(C)CC4)cc3OC)nc12 [IIa-36]
550 |  | CCCCNc1nc(N)nc2cn(Cc3ccc(CO)cc3OC)nc12 [IIa-14]
280 |  | CCCCNc1nc(N)nc2cn(Cc3ccc(CNCC(C)(C)O)cc3OC)nc12 [IIa-20]
340 |  | CCCCNc1nc(N)nc2cn(Cc3ccc(CNC4CCC4)cc3OC)nc12 [IIa-01]
420 |  | CCCCNc1nc(N)nc2cn(Cc3ccc(CNC4CC(O)C4)cc3OC)nc12 (stereo not shown) [IIa-09]
510 |  | CCCCNc1nc(N)nc2cn(Cc3ccc(CN4CCNCC4)cc3OC)nc12 [IIa-02]
130 |  | CCCCNc1nc(N)nc2cn(Cc3ccc(CNCC4CC(O)C4)cc3OC)nc12 (stereo not shown) [IIa-24]
410 |  | CCCCNc1nc(N)nc2cn(Cc3ccc(CN4CCCCC4)cc3OC)nc12 [IIa-31]
200 |  | CCCCNc1nc(N)nc2cn(Cc3ccc(CNCCOC)cc3OC)nc12 [IIa-22]
540 |  | CCCCNc1nc(N)nc2cn(Cc3ccc(CNCCS(C)(=O)=O)cc3OC)nc12 [IIa-11]
270 |  | CCCCNc1nc(N)nc2cn(Cc3ccc(CNCc4ccc(N)cc4)cc3OC)nc12 [IIa-10]
450 |  | CCCCNc1nc(N)nc2cn(Cc3ccc(CNCc4ccncc4)cc3OC)nc12 [IIa-05]
303 |  | CCCCNc1nc(N)nc2cn(Cc3ccc(CN4CC(CCO)C4)cc3OC)nc12 [IIa-23]
194 |  | CCCCNc1nc(N)nc2cn(Cc3ccc(CN(C)CCCO)cc3OC)nc12 [IIa-26]
190 |  | CCCCNc1nc(N)nc2cn(Cc3ccc(Cn4ccnc4)cc3OC)nc12 [IIa-21]
320 |  | CCCCNc1nc(N)nc2cn(Cc3ccc(CNC4CCOCC4)cc3OC)nc12 [IIa-19]
430 |  | CCCCNc1nc(N)nc2cn(Cc3ccc(CNC4(CO)CCCC4)cc3OC)nc12 [IIa-28]
550 |  | CCCCNc1nc(N)nc2cn(Cc3ccc(CNC(C)(C)C)cc3OC)nc12 [IIa-34]
300 |  | CCCCNc1nc(N)nc2cn(Cc3ccc(CNC4COC4)cc3OC)nc12 [IIa-15]
